# Measurements reported in patent US12570612B2, “Substituted nitrogen heterocyclic compound and anesthetic effect thereof” (priority 2019, dated 2026).
# Entries after “also recorded” stand apart in the source; their conditions may differ. Where two headings read alike, the source gives them in different places.
# How the values were obtained:
# [1] = test system: Sprague-Dawley rats; test: animal or person; type: in vivo; settings: Rattus norvegicus; LORR, up and down method, tail vein, rats; brackets = 95% confidence limit; read-out: ED50
# Description: (§1) Evaluating indicator: The end point of anesthesia: the disappearance of forepaw righting reflex (lorr) was used as the end point of anesthesia; General anesthesia effect: the disappearance of forepaw righting reflex in rats lasting for 30 seconds is taken as the index of general anesthesia effect; Anesthesia recovery index: the recovery of rat forepaw righting reflex was used as the index of anesthesia recovery.
# [2] = test system: H295R cell line; test: Adrenocortical function in vitro test: secretion of cortisol and corticosterone, Group B compounds; type: cell-based; settings: H295R cells; for EC50: Homo sapiens, NCI-H295R, 0.1-10000 nM, HPLC-MS/MS
# [3] = test system: SD rats
# Outline: (§2)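 Adult male SD rats (250–350 g) received continuous infusion. Read-outs: time from infusion start to […]; after 1 h infusion, time from stop to return of forepaw turning reflex and to full recovery.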
# [4] = test system: Sprague-Dawley rats; test: Pharmacological effect and adverse reactions under the equivalent dose (2ED50), Group D compounds; type: in vivo
# Description: (§3) Evaluation index: onset time: from the completion of drug injection to the disappearance of forepaw righting reflex in rats; Duration of anesthesia: the time from the disappearance of rat forepaw righting reflex to the recovery of rat forepaw righting reflex; Recovery time of anesthesia: the time from the […] to complete recovery;
# [5] = test system: circulatory function of rats; test: Circulatory function of rats (MAP, HR) by implanted telemetry, Group D compounds; settings: 2ED50, rats, FIG. 19-22
# Description: (§5) First, the animal model was established, and the left ventricular catheter, abdominal aorta catheter and electrocardiogram wire were placed. At least one week after the operation, the signal can be collected to start the test. At the beginning of the experiment, after the placement of the indwelling needle in the tail vein of rats, connect the extension tube, put the rats together with the feeding cage on the signal receiver and start collecting data. […] All compounds or drugs were given at a constant volume of 0.6 ml at a uniform rate of 0.1 ml/s.
# Evaluation indexes: Collect the blood pressure, heart rate and other data of rats during and 15 minutes after administration, and judge the effect of the compound of the invention on the circulatory function of rats with the indexes of mean arterial pressure (MAP) and heart rate (HR).
# [6] = test system: Sprague-Dawley rats; test: animal or person
# Description: (§4) Adult male Sprague-Dawley rats (250-300 g) were selected for the experiment. […] The anesthesia effects of the compounds were assessed in rats using a LORR assay and a period >30 s was considered as an indicator of general anesthesia.
# [7] = test system: Sprague-Dawley rats
# Description: Adult male Sprague-Dawley rats with body weight ranging from 250 to 300 gm were selected for continuous infusion test. […] Time to recovery of righting reflex from stopping infusion, and time to fully awake from stopping infusion were recorded.
# [8] = test system: Sprague-Dawley rats; type: in vivo; settings: tail vein
# [9] = test system: H295R cell line; test: Adrenocortical function in vitro test: secretion of cortisol and corticosterone, Group A compounds; type: cell-based; settings: H295 cells; for EC50: Homo sapiens, 0.1-10000 nM, HPLC-MS/MS
# [10] = test system: adrenal cortex function; settings: rat, in vivo
# [11] = test system: SD rats; remark: listed apart in the source
# Outline: as §2
# [12] = test system: circulatory function of rats; settings: rat, in vivo
# [13] = test system: Sprague-Dawley rats; test: Pharmacological effect and adverse reactions under the equivalent dose (2ED50), Group C compounds; type: in vivo
# Description: as §3
# [14] = test system: circulatory function of rats; test: Circulatory function of rats (MAP, HR) by implanted telemetry, Group C compounds; settings: 2ED50, rats, FIG. 13-16
# Description: as §5
# [15] = test system: Sprague-Dawley rats; test: animal or person; remark: listed apart in the source
# Description: as §4
# [16] = test system: Sprague-Dawley rats; type: in vivo; settings: tail vein; remark: listed apart in the source
# [17] = test system: Sprague-Dawley rats; test: Continuous infusion at 2 times the MIR for 1 hour, Group B compounds; type: in vivo
# [18] = test system: circulatory function of rats; settings: rat, in vivo; remark: listed apart in the source
# Description: First, animal models were established. […] At least one week after surgery, data were recorded.
# Finally, the pharmacological effects, adverse reactions, and behavioral manifestations of the rats were observed and recorded
# After data acquisition, the test was stopped.
# [19] = biological target: T1, 11β-Hydroxylase (Homo sapiens, UniProt P15538); settings: cited from earlier work
# T1 sequence (P15538 25-503): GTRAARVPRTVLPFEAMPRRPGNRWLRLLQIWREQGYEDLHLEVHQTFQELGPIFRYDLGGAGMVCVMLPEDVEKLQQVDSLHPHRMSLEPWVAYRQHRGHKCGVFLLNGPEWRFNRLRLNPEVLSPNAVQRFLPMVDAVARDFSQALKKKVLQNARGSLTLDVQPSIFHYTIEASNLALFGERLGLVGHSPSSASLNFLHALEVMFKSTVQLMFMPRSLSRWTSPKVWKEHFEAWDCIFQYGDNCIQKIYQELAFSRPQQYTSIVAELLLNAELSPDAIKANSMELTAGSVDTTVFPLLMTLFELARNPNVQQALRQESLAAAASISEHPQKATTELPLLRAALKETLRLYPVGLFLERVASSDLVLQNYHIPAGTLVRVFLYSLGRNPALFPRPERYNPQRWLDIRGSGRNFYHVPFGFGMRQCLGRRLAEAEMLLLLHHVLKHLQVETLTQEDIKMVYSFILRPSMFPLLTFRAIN
# [20] = test system: adrenal cortex function; settings: rat, in vivo; remark: listed apart in the source
# [21] = test system: Sprague-Dawley rats; test: animal or person; type: in vivo; settings: Rattus norvegicus; LORR, up and down method, tail vein, rats; brackets = 95% confidence limit; read-out: ED50; remark: listed apart in the source
# Description: as §1, with “LORR” for “the disappearance of forepaw righting reflex (lorr)”
# [22] = read-out: EC50 (Corticosterone)
# [23] = after 1 hour continuous infusion at 2 times the MIR, SD rats
# [24] = continuous infusion 2 x MIR 1 hour, rats affected/rats
# [25] = continuous tail vein infusion at 2 times the MIR, SD rats
# [26] = 2ED50, tail vein, rats, n=8, unit s
# [27] = equivalent dose (2 × ED50), number of rats of n = 8
# [28] = equivalent dose (2ED50), number of rats of n = 8
structure (smiles),measurement,setting,value
"CCOC(=O)c1cncn1C(C)c1ccccc1 (stereo not drawn) [Etomidate, reference compound]",ED50,[1],0.74 mg/kg
same,Corticosterone as an indicator to determine the presence of inhibition,[2],2
same,Cortisol as an indicator to determine the presence of inhibition,[2],2
same,EC50,[2]; [22],> 10 nM
same,EC50,[2]; read-out: EC50 (Cortisol),> 1 nM
same,After the infusion is stopped: Righting reflex recovery time,[3]; [23],15 to 20 min
same,Recovery time after stopping infusion,[3]; [23],30 to 40 min
same,Types and incidence of adverse reactions: Hindlimb rigidity,[3]; [24],Hindlimb rigidity(2/6)
same,Types and incidence of adverse reactions: Myoclonus,[3]; [24],4/6
same,Types and incidence of adverse reactions: Tongue stretching,[3]; [24],"Tongue stretching(2/6),"
same,Types and incidence of adverse reactions: Tremor,[3]; [24],6/6
same,Sedation onset time,[3]; [25],<5 min
same,Onset time,[4]; [26],<30 s
same,Adverse reaction: Convulsions,[4]; [27],0
same,"Adverse reaction: Cough, broken-winded",[4]; [27],0
same,Adverse reaction: Euphoria,[4]; [27],0
same,Adverse reaction: Four limbs rigidity,[4]; [27],2
same,"Adverse reaction: Slower breathing, Tetany convulsion",[4]; [27],0
same,"Adverse reaction: Systemic stiffness, Convulsions, Opisthotonus",[4]; [27],0
same,Adverse reaction: Tongue stretching,[4]; [27],4
same,Adverse reaction: Tremor,[4]; [27],3
same,"effect on the circulatory function (MAP, HR)",[5],"slight inhibitory effect on the circulatory function after administration, but soon rises to near the baseline"
same,ED50,"[6]; Rattus norvegicus, LORR in rats, tail vein, brackets = 95% confidence limit",0.75 mg/kg
same,Minimal lethal dose,[6]; rats,12.75 mg/kg
same,Recovery time after stopping infusion,"[7]; LORR maintained for 1 hour, 2 times the MIR",25 to 30 min
same,Onset time,"[7]; continuous infusion, 2 times the MIR",4 to 5 min
same,Types and incidence of adverse reactions,"[7]; continuous infusion, (animals affected/animals)","Tonguestretching(5/6); also recorded: Tremor(6/6), Facial; also recorded: muscle twitching (4/6)"
same,Minimal lethal dose,[8],13.8 mg/kg
same,Corticosterone as an indicator to determine the presence of inhibition,[9],2
same,Cortisol as an indicator to determine the presence of inhibition,[9],2
same,EC50,[9]; [22],> 10 nM
same,EC50,[9]; read-out: EC50 (Cortisol),> 1 nM
same,effect on the synthesis of adrenal cortex hormone (serum corticosterone),[10],obvious inhibitory effect on adrenal cortex function
same,After the infusion is stopped: Righting reflex recovery time,[11]; [23],15 to 20 min
same,Recovery time after stopping infusion,[11]; [23],30 to 40 min
same,Types and incidence of adverse reactions: Hindlimb rigidity,[11]; [24],Hindlimb rigidity(2/6)
same,Types and incidence of adverse reactions: Myoclonus,[11]; [24],4/6
same,Types and incidence of adverse reactions: Tongue stretching,[11]; [24],"Tongue stretching(2/6),"
same,Types and incidence of adverse reactions: Tremor,[11]; [24],6/6
same,Sedation onset time,[11]; [25],<5 min
same,"inhibitory effect on the circulatory function (MAP, HR)",[12],almost no inhibitory effect on the circulatory function
same,Onset time,[13]; [26],<30 s
same,Adverse reaction: Convulsions,[13]; [28],0
same,"Adverse reaction: Cough, broken-winded",[13]; [28],0
same,Adverse reaction: Euphoria,[13]; [28],0
same,"Adverse reaction: Slower breathing, Tetany convulsion",[13]; [28],0
same,"Adverse reaction: Systemic stiffness, Convulsions, Opisthotonus",[13]; [28],0
same,Adverse reaction: Tongue stretching,[13]; [28],4
same,Adverse reaction: Tremor,[13]; [28],6
same,Adverse reaction: the four limbs rigidity,[13]; [28],0
same,"effect on the circulatory function (MAP, HR)",[14],"slight inhibitory effect on the circulatory function after administration, but soon rises to near the baseline"
same,ED50,[15]; Rattus norvegicus,0.75 mg/kg
same,Minimal lethal dose,[15]; rats,12.75 mg/kg
same,Minimal lethal dose,[16],13.8 mg/kg
same,Recovery time after stopping infusion,"[17]; after 1 hour continuous infusion at 2 times the MIR, rats",25 to 30 min
same,Types and incidence of adverse reactions: Facial muscle twitching,[17]; [24],4/6
same,Types and incidence of adverse reactions: Tongue stretching,[17]; [24],Tongue stretching (5/6)
same,Types and incidence of adverse reactions: Tremor,[17]; [24],"Tremor (6/6), Facial"
same,Onset time,"[17]; continuous tail vein infusion at 2 times the MIR, emulsion, rats",4 to 5 min
same,"inhibitory effect on the circulatory function (MAP, HR)",[18],almost no inhibitory effect on the circulatory function
same,inhibition of 11β-Hydroxylase,[19],can inhibit the key enzymes in the synthesis pathway of adrenocortical hormone
same,effect on the synthesis of adrenal cortex hormone (serum corticosterone),[20],obvious inhibitory effect on adrenal cortex function
same,ED50,[21],0.74 mg/kg
